Measurements taken from publication PMC6044720 (ACS Omega, 2018).

Key:
[1] = tested on: Swiss albino mice; assay: Formalin-induced hyperalgesia; assay type: in vivo; conditions: for number of flinching in the inflammatory phase compared to control group: 10 mg kg^–1 i.p.; for inhibition in vivo at 10 mg/kg: Mus musculus, ip, read-out: % inhibition of algesia (analgesic effect), 10 mg kg^–1 i.p. 30 min before formalin, Swiss albino mice
[2] = Solubility observations; assay type: physicochemical; conditions: enzyme immunoassay medium, in words
[3] = target: T1, COX-2 (Homo sapiens, UniProt P35354); assay: Isothermal titration calorimetry with COX-2; assay type: binding; conditions: phosphate buffer pH 7.4
T1 sequence (P35354 18-604): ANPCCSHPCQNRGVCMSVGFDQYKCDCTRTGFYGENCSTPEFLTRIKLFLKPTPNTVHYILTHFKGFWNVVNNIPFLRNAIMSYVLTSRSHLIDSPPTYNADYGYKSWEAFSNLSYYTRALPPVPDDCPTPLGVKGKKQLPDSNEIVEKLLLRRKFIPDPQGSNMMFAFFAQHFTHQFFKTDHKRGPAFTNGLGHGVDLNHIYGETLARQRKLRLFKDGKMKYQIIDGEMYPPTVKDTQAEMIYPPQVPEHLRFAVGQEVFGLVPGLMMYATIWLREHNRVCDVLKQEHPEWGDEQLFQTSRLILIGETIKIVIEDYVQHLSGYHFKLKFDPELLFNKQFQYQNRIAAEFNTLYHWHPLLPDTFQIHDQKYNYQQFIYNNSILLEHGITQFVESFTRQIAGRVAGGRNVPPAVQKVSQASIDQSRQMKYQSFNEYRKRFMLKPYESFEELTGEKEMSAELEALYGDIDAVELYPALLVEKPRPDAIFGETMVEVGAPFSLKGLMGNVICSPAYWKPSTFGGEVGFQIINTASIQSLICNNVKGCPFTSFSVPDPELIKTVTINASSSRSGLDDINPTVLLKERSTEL

[4] = tested on: Swiss albino mice; assay: Carrageenan-induced paw inflammation; assay type: in vivo; conditions: for paw thickness compared to untreated control group: carrageenan, in words
[5] = In vivo pharmacokinetic study; design: species or system rat
[6] = target: T1, COX-2; assay: Human whole blood COX-2 assay: LPS-stimulated PGE2 production; assay type: cell-based; conditions: for effect on PGE2 production in LPS-stimulated blood: 1 μM, in words; for PGE2, +LPS: compound final concn 1 μM, control 1.98
[7] = target: COX-1 (Homo sapiens, UniProt P23219); assay: Human whole blood COX-1 assay: calcium ionophore; assay type: cell-based; conditions: for effect on ionophore-stimulated TXB2 production: 1 μM, in words; for TXB2, +calcium ionophore: compound final concn 1 μM, control 2.00
Sequence of COX-1 (P23219 24-599): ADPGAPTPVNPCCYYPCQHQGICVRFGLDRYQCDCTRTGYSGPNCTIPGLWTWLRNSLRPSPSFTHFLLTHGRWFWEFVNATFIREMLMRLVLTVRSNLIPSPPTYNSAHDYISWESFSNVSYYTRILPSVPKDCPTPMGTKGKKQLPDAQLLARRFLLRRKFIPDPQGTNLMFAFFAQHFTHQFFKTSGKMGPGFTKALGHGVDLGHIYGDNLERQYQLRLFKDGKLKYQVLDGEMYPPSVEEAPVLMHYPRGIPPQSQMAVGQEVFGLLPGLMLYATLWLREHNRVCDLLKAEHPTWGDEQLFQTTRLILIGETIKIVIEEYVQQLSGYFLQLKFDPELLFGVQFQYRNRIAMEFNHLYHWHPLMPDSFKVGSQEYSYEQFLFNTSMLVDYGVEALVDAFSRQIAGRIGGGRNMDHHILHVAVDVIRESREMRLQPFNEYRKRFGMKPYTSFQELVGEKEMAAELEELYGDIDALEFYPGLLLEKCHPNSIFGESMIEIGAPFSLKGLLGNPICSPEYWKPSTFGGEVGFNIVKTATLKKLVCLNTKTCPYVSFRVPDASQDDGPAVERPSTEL

[8] = tested on: Swiss albino mice; assay: Acute oral toxicity, 14 days; assay type: in vivo
[9] = male wistar rat, 10 mg kg^–1 i.p.
[10] = male, Wistar, rat, serum, ip, 10 mg/kg

Row | SMILES | number of flinching in the inflammatory phase compared to control group ([1]; in words) | inhibition in vivo at 10 mg/kg [1] | effect on PGE2 production in LPS-stimulated blood [6] | PGE2, +LPS [6] | effect on ionophore-stimulated TXB2 production [7] | TXB2, +calcium ionophore [7] | further results
1 | O=Cc1cn(-c2nc(N3CCOCC3)nc(N3CCOCC3)n2)c2ccccc12 [Compound 2, 1-(4,6-Dimorpholino-1,3,5-triazin-2-yl)-1H-indole-3-carbaldehyde] | significantly decreased | 57.4% | – | – | – | – | –
2 | O=C1/C(=C\c2cn(-c3nc(N4CCOCC4)nc(N4CCOCC4)n3)c3ccccc23)c2ccccc2N1c1c(Cl)cccc1Cl [Compound 3, (Z)-1-(2,6-Dichlorophenyl)-3-((1-(4,6-dimorpholino-1,3,5-triazin-2-yl)1H-indolyl)methylene)indolin-2-one] | significantly decreased | 55.6% | – | – | – | – | –
3 | O=C1Nc2ccccc2/C1=C/c1cn(-c2nc(N3CCOCC3)nc(N3CCOCC3)n2)c2ccccc12 [Compound 4, (Z)-3-((1-(4,6-Dimorpholino-1,3,5-triazin-2-yl)-1H-indol-3-yl)methylene)indolin-2-one] | significantly decreased | 61.3% | – | – | – | – | –
4 | CN1C(=O)C(=Cc2cn(-c3nc(N4CCOCC4)nc(N4CCOCC4)n3)c3ccccc23)C(=O)N(C)C1=O [Compound 5, 1,3-Dimethyl-5-((1-(4,6-dimorpholino-1,3,5-triazin-2-yl)-1H-indol-3-yl)methylene)pyrimidine-2,4,6(1,3,5H)-trione] | – | – | – | – | – | – | solubility in the assay medium [2]: poor solubility
5 | CC1=NN(c2cccc(Cl)c2)C(=O)/C1=C\c1cn(-c2nc(N3CCOCC3)nc(N3CCOCC3)n2)c2ccccc12 [Compound 6, (4Z)-1-(3-Chlorophenyl)-3-methyl-4-((1-(4,6-dimorpholino-1,3,5-triazin-2-yl)-1H-indol-3-yl)methylene)-1H-pyrazol-5(4H)-one] | significantly decreased | – | significantly decreased | 0.91 ng/mL | did not affect | 1.85 ng/mL | ΔH COX-2 (ITC) [3]: -9.685 kcal/mol; decrease in paw thickness ([4]; 30 min after carrageenan): 18%; decrease in paw thickness ([4]; 60 min after carrageenan): 14%; paw thickness compared to untreated control group [4]: decrease the paw thickness significantly; Cl/F_obs [5, 9]: 0.0008011 (mg)/(μg/mL)/min; Vz/F_obs [5, 9]: 0.3796 (mg)/(μg/mL); Cmax [5, 10]: 58.5 µg/mL; MRT inf [5, 10]: 8.16 h; Tmax [5, 10]: 3 h; k el [5, 10]: 3.52e-05 s⁻¹; half-life ([5]; male, Wistar, rat, serum, ip, 10 mg/kg, half-life, male wistar rat, 10 mg kg^–1 i.p.): 5.5 h; half-life ([5]; male, Wistar, rat, serum, ip, 10 mg/kg, t1/2, male wistar rat, 10 mg kg^–1 i.p.): 5.47 h; mortality or gross behavioral impairment ([8]; 50, 300 and 2000 mg kg^–1, after the 14th day): no mortality or any gross behavioral impairment; maximum tolerable dose ([8]; Swiss albino mice): > 2000 mg kg^–1; tissue histology (liver, kidney, myocardium) ([8]; after 14 days, H and E staining): no significant lesions except for some degree of congestion; toxicity ([8]; dose of 2000 mg kg^–1): did not exhibit toxicity; analgesic effect on A23187 pretreatment ([1]; TXA2 stimulator A23187, in words): did not alter; analgesic effect on pretreatment with L-arginine or L-NAME ([1]; given 30 min before compound, in words): did not alter; analgesic effect on pretreatment with substance P ([1]; substance P 30 min before compound, in words): significantly attenuated
6 | O=C1Nc2ccccc2/C1=C/c1cn(-c2nc(N3CCCCC3)nc(N3CCOCC3)n2)c2ccccc12 [Compound 10, (Z)-3-((1-(4-Morpholino-6-(piperidin-1-yl)-1,3,5-triazin-2-yl)-1H-indol-3-yl)methylene)indolin-2-one] | significantly decreased | 54.9% | significantly decreased | 1.02 ng/mL | did not affect | 1.55 ng/mL | –
7 | CC1=NN(c2cccc(Cl)c2)C(=O)/C1=C\c1cn(-c2nc(N3CCCCC3)nc(N3CCOCC3)n2)c2ccccc12 [Compound 12, (Z)-1-(3-Chlorophenyl)-3-methyl-4-((1-(4-morpholino-6-(piperidin-1-yl)-1,3,5-triazin-2-yl)-1H-indol-3-yl)methylene)-1H-pyrazol-5(4H)-one] | significantly decreased | 74.2% | significantly decreased | 0.95 ng/mL | did not affect | 1.75 ng/mL | paw thickness compared to untreated control group [4]: decrease the paw thickness significantly
8 | CC1=NN(c2cccc(Cl)c2)C(=O)/C1=C\c1cn(-c2nc(N3CCCC3)nc(N3CCOCC3)n2)c2ccccc12 [Compound 17, (Z)-1-(3-Chlorophenyl)-3-methyl-4-((1-(4-morpholino-6-(pyrrolidin-1-yl)-1,3,5-triazin-2-yl)-1H-indol-3-yl)methylene)-1H-pyrazol-5(4H)-one] | significantly decreased | – | significantly decreased | 1.00 ng/mL | did not affect | 1.70 ng/mL | –
9 | CC1=NN(c2cccc(Cl)c2)C(=O)/C1=C\c1cn(-c2nc(Cl)nc(N3CCOCC3)n2)c2ccccc12 [Compound 18, (Z)-4-((1-(4-Chloro-6-morpholino-1,3,5-triazin-2-yl)-1H-indol-3-yl)methylene)-1-(3-chlorophenyl)-3-methyl-1H-pyrazol-5(4H)-one] | significantly decreased | 59% | – | – | – | – | –
10 | CC1=NN(c2cccc(Cl)c2)C(=O)/C1=C\c1cn(-c2nc(N3CCCCC3)nc(N3CCCCC3)n2)c2ccccc12 [Compound 22, (Z)-1-(3-Chlorophenyl)-4-((1-(4,6-di(piperidin-1-yl)-1,3,5-triazin-2-yl)-1H-indol-3-yl)methylene)-3-methyl-1H-pyrazol-5(4H)-one] | significantly decreased | 61.9% | – | – | – | – | –
11 | O=C(O)Cc1ccccc1Nc1c(Cl)cccc1Cl [Diclofenac, reference compound] | significantly decreased | – | – | – | – | – | –
12 | COc1ccc2c(c1)c(CC(=O)O)c(C)n2C(=O)c1ccc(Cl)cc1 [Indomethacin, reference compound] | – | – | – | – | – | – | decrease in paw thickness ([4]; 30 min after carrageenan): 30%; decrease in paw thickness ([4]; 60 min after carrageenan): 25%; paw thickness compared to untreated control group [4]: decrease the paw thickness significantly
